Molecular target: Steroidogenic factor 1 (Homo sapiens, UniProt Q13285)
Test: SF-1 driven luciferase reporter response, dose response, counter-screen for RORA activator project, CHO-K1 cells (AID 695)
Conditions: not given

Chain of Steroidogenic factor 1 (Q13285 whole entry): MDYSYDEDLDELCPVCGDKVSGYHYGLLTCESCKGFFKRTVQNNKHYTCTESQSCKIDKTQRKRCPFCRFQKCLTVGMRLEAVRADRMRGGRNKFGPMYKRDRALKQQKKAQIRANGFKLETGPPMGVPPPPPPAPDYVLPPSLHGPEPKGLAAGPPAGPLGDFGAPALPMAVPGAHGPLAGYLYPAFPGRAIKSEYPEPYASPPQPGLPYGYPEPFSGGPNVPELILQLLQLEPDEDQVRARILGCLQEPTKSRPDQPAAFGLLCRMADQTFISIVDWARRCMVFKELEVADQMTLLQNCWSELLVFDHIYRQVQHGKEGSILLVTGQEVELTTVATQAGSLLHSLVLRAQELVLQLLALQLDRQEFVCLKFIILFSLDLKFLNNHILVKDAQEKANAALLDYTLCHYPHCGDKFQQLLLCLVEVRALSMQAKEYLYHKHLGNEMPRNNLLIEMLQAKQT

Row | SMILES | EC50 [nM]
1 | O=C1N(CCCN2C(=O)C3(OCCO3)c3ccccc32)c2ccccc2C12OCCO2 [1'-[3-(2'-ketospiro[1,3-dioxolane-2,3'-indoline]-1'-yl)propyl]spiro[1,3-dioxolane-2,3'-indoline]-2'-one] | > 99000
2 | COc1cc(C)c(C(C)C)cc1S(=O)(=O)n1cnc(C)c1 [1-(2-methoxy-4-methyl-5-propan-2-yl-phenyl)sulfonyl-4-methyl-imidazole] | 1320
3 | CN1CCN(S(=O)(=O)c2ccc(Br)s2)CC1 [1-(5-bromanylthiophen-2-yl)sulfonyl-4-methyl-piperazine] | > 99000
4 | Clc1ccccc1OCCn1cnc2ccccc21 [1-[2-(2-chloranylphenoxy)ethyl]benzimidazole] | 3670
5 | O=C(c1ccc(-c2nnc(-c3ccccc3)o2)cc1)N1CCCCCC1 [1-azepanyl-[4-(5-phenyl-1,3,4-oxadiazol-2-yl)phenyl]methanone] | 252
6 | Cn1c(SCc2ccccc2F)nc2cccnc21 [2-(2-Fluoro-benzylsulfanyl)-3-methyl-3H-imidazo[4,5-b]pyridine] | > 1220
7 | Clc1ccc(-c2nnc(-c3ccccc3Cl)o2)cc1 [2-(2-chlorophenyl)-5-(4-chlorophenyl)-1,3,4-oxadiazole] | 233
8 | COc1ccc(Nc2oc(-c3ccccc3Cl)nc2C#N)cc1 [2-(2-chlorophenyl)-5-(4-methoxyanilino)-1,3-oxazole-4-carbonitrile] | 2740
9 | CCCCOC(=O)C(C)Oc1ccc(=O)n(-c2ccccc2)n1 (configuration not stated) [2-(6-keto-1-phenyl-pyridazin-3-yl)oxypropionic acid butyl ester] | > 99000
10 | CCOC(=O)c1ccccc1NC(=O)CSc1nnnn1C1CCCCC1 [2-[2-(1-Cyclohexyl-1H-tetrazol-5-ylsulfanyl)-acetylamino]-benzoic acid ethyl ester] | > 99000
11 | Cc1cc(NCCOCCO)n2ncc(-c3ccc(Cl)cc3)c2n1 [2-[2-[[3-(4-chlorophenyl)-5-methyl-7-pyrazolo[1,5-a]pyrimidinyl]amino]ethoxy]ethanol] | 485
12 | CCCCOc1ccc(-c2nnn(CC(=O)NCc3ccco3)n2)cc1 [2-[5-(4-Butoxy-phenyl)-tetrazol-2-yl]-N-furan-2-ylmethyl-acetamide] | 1880
13 | Nc1c(C(=O)NCCN2CCOCC2)c2nc3ccccc3nc2n1-c1ccc2c(c1)OCO2 [2-amino-1-(1,3-benzodioxol-5-yl)-N-(2-morpholin-4-ylethyl)pyrrolo[3,2-b]quinoxaline-3-carboxamide] | > 11000
14 | COCCOC(=O)c1[nH]c2c(c1C)C(=O)CC(c1cc(OC)ccc1OC)C2 (configuration not stated) [2-methoxyethyl 6-(2,5-dimethoxyphenyl)-3-methyl-4-oxo-1,5,6,7-tetrahydroindole-2-carboxylate] | 7670
15 | Cc1cc(N)c(NC2=CC(=O)CC(C)(C)C2)cc1C [3-(2-amino-4,5-dimethyl-anilino)-5,5-dimethyl-cyclohex-2-en-1-one] | > 11000
16 | CC(=O)C(C)Oc1ccc2c3c(c(=O)oc2c1C)CCCC3 (configuration not stated) [3-(2-keto-1-methyl-propoxy)-4-methyl-7,8,9,10-tetrahydrobenzo[c]chromen-6-one] | 807
17 | COc1cccc(-c2noc(-c3cccs3)n2)c1 [3-(3-methoxyphenyl)-5-(2-thienyl)-1,2,4-oxadiazole] | 226
18 | COc1cccc(-c2noc(-c3cccnc3)n2)c1 [3-(3-methoxyphenyl)-5-(3-pyridinyl)-1,2,4-oxadiazole] | 1740
19 | O=C1OC(N2CCN(Cc3ccccc3)CC2)c2ccccc21 (configuration not stated) [3-(4-benzylpiperazin-1-yl)-3H-2-benzofuran-1-one] | > 99000
20 | Cc1cc(NC(=O)c2oc3ccccc3c2C)ccc1-n1cnnn1 [3-Methyl-benzofuran-2-carboxylic acid (3-methyl-4-tetrazol-1-yl-phenyl)-amide] | 3240

Row | SMILES | EC50 [nM]
21 | CCn1c(-c2ccc(N(C)C)cc2)nc2ccccc21 [4-(1-ethyl-2-benzimidazolyl)-N,N-dimethylaniline] | 540
22 | COc1ccccc1-c1nc(-c2ccncc2)no1 [4-[5-(2-Methoxy-phenyl)-[1,2,4]oxadiazol-3-yl]-pyridine] | 1240
23 | Cc1ccccc1Cn1ccc(NC(=O)c2onc(C)c2Cl)n1 [4-chloranyl-3-methyl-N-[1-[(2-methylphenyl)methyl]pyrazol-3-yl]-1,2-oxazole-5-carboxamide] | 7180
24 | COc1ccc(C(=O)Nc2cc(C)on2)cc1 [4-methoxy-N-(5-methyl-1,2-oxazol-3-yl)benzamide] | 918
25 | Cc1ccc(-c2nc(C#N)c(NCc3ccco3)o2)cc1 [5-(2-furanylmethylamino)-2-(4-methylphenyl)-4-oxazolecarbonitrile] | 3420
26 | Oc1coc2ccc(OCc3ccc(F)cc3)cc12 [5-(4-fluorobenzyl)oxycoumaran-3-one] | 1710
27 | CCOc1ccc(-c2nc(C#N)c(NC3CC3)o2)cc1 [5-(cyclopropylamino)-2-(4-ethoxyphenyl)-1,3-oxazole-4-carbonitrile] | 4020
28 | Cc1ccc2nc(Nc3ccc4[nH]c(O)nc4c3)c(-n3nc(C)cc3C)nc2c1 [5-[[3-(3,5-dimethyl-1-pyrazolyl)-6-methyl-2-quinoxalinyl]amino]-1,3-dihydrobenzimidazol-2-one] | > 1220
29 | COc1cccc(NC(=O)c2nnn(Cc3ccc(Br)cc3F)c2N)c1 [5-amino-1-(4-bromo-2-fluoro-benzyl)-N-(3-methoxyphenyl)triazole-4-carboxamide] | 4380
30 | O=C(Nc1ccc(N2CCCCC2)cc1)c1cncc(Br)c1 [5-bromanyl-N-(4-piperidin-1-ylphenyl)pyridine-3-carboxamide] | 1060
31 | CCOc1cc(N2CCOCC2)c(OCC)cc1NS(=O)(=O)c1ccc(Cl)s1 [5-chloranyl-N-(2,5-diethoxy-4-morpholin-4-yl-phenyl)thiophene-2-sulfonamide] | 1220
32 | CCN(CCCNC(=O)c1cn(CC)c2ccc(S(=O)(=O)N(C)C)cc2c1=O)c1cccc(C)c1 [6-(dimethylsulfamoyl)-1-ethyl-N-[3-(N-ethyl-3-methyl-anilino)propyl]-4-keto-quinoline-3-carboxamide] | > 99000
33 | COC(=O)c1c(NC(=O)CC2SCC(C(=O)OC)NC2=O)sc2c1CCCC2 (configuration not stated) [6-[2-[(3-carbomethoxy-4,5,6,7-tetrahydrobenzothiophen-2-yl)amino]-2-keto-ethyl]-5-keto-thiomorpholine-3-carboxylic acid methyl ester] | > 99000
34 | Cc1cccn2cc(-c3ccccc3)nc12 [8-methyl-2-phenyl-imidazo[1,2-a]pyridine] | 190
35 | Cn1cccc1C(=O)OCc1csc(-c2ccccc2)n1 [(2-phenyl-1,3-thiazol-4-yl)methyl 1-methylpyrrole-2-carboxylate] | 129
36 | CCOC(=O)CSc1nc2cc(OCC)ccc2cc1C#N [(3-Cyano-7-ethoxy-quinolin-2-ylsulfanyl)-acetic acid ethyl ester] | 3280
37 | CC1=CCC(COC(=O)Nc2ccccc2)CC1 (configuration not stated) [(4-methylcyclohex-3-en-1-yl)methyl N-phenylcarbamate] | 1240
38 | CCN(CC)C(=O)Oc1ccc2c(=O)c(-c3ccccc3)coc2c1 [(4-oxidanylidene-3-phenyl-chromen-7-yl) N,N-diethylcarbamate] | 826
39 | CCOC(=O)Nc1ccc2c(c1)Nc1ccccc1S2 [(10H-Phenothiazin-2-yl)-carbamic acid ethyl ester] | > 3670
40 | C=CCOc1ccc(C=CC(C)N=O)cc1 (configuration not stated) [(E)-4-(4-allyloxyphenyl)but-3-en-2-one oxime] | 1020

Row | SMILES | EC50 [nM]
41 | CCOc1ccc(C=CC(C)N=O)cc1 (configuration not stated) [(Z)-4-(4-ethoxyphenyl)-3-buten-2-one oxime] | > 407
42 | CC(C)CNS(=O)(=O)c1ccc(C(=O)Nc2ccc3c(c2)OCCO3)cc1 [MLS000032888] | 5530
43 | COc1ccc(C(O)P(=O)(O)CCc2ccccc2)cc1 (configuration not stated) [MLS000038577] | > 99000
44 | COc1ccc(C(=O)n2c(-c3ccco3)nc3ccccc32)cc1 [MLS000039368] | 4800
45 | COc1ccccc1-c1nnc(NC(C)=O)s1 [MLS000041972] | 1300
46 | CCn1c(Cn2nnc(-c3ccccc3)n2)nnc1SCC(=O)Nc1ccc(C(C)=O)cc1 [MLS000068275] | 2150
47 | CCOc1ccc2nc(NC(=O)c3cnccn3)sc2c1 [MLS000070707] | 140
48 | COc1ccc2nc(NC(=O)CSc3nnc(-c4ccoc4C)n3C)sc2c1 [MLS000073639] | 4830
49 | CCc1nnc2c3cnn(-c4ccccc4)c3ncn12 [MLS000080478] | 5080
50 | O=C(NCc1cccs1)c1noc2c1CCCC2 [MLS000087354] | 5050
51 | Cc1ccc2c(c1)c1c3n2CCCNC3CCC1 (configuration not stated) [MLS000105423] | > 99000
52 | COc1ccc(CCC(=O)Nc2ccc3c(c2)OCCO3)cc1 [MLS000110197] | > 99000
53 | CCOc1ccc2nc(N3CCC(C(=O)N4CCN(c5ccccn5)CC4)CC3)sc2c1 [MLS000119552] | > 99000
54 | O=C(Nc1nnc(C23CC4CC(CC(C4)C2)C3)s1)c1ccco1 [N-[5-(1-adamantyl)-1,3,4-thiadiazol-2-yl]furan-2-carboxamide] | 257
55 | O=C(Nc1ccc2nc(-c3ccc(Br)o3)[nH]c2c1)c1cccs1 [SMR000046012] | 4110
56 | Oc1ccc(Cl)cc1C=Nc1nc2ccccc2[nH]1 [SMR000103225] | > 99000
57 | Cc1nc(N=CN(C)C)sc1C(=O)Nc1ccccc1 [SMR000107046] | 6150
58 | Cc1c(C(=O)OCC2CCCO2)[nH]c2c1C(=O)CC(c1ccco1)C2 (configuration not stated) [oxolan-2-ylmethyl 6-(furan-2-yl)-3-methyl-4-oxo-1,5,6,7-tetrahydroindole-2-carboxylate] | 1230

Same assay, conditions: inactive by the depositor's call

Row | SMILES | EC50 [nM]
59 | O=c1c2ccccc2nc2ccc(NCc3ccco3)nn12 [2-(2-furanylmethylamino)-10-pyridazino[6,1-b]quinazolinone] | 27300
60 | O=C(c1ccco1)N1CCN(c2ncnc3c(-c4ccccc4)nsc23)CC1 [2-furanyl-[4-(3-phenyl-7-isothiazolo[4,5-d]pyrimidinyl)-1-piperazinyl]methanone] | 21000
61 | O=C(NC1CCCC1)c1cc(-c2cccs2)on1 [MLS000087238] | 10900
62 | O=C(CSc1nc[nH]n1)Nc1nnc(-c2ccccc2)s1 [SMR000091719] | 12700

From BindingDB's records for doi:10.7270/Q2028PXQ (The Scripps Research Institute Molecular Screening Center, 2007)
